Experiment [1] addresses cAMP-dependent protein kinase type II-alpha regulatory subunit (Homo sapiens, UniProt P13861).
Experiment [2] addresses Serine/threonine-protein kinase SIK3 (Homo sapiens, UniProt Q9Y2K2).
In experiment [3] the target is T1, Serine/threonine-protein kinase STK11 (Homo sapiens, UniProt Q15831).
T1 sequence (Q15831 whole entry): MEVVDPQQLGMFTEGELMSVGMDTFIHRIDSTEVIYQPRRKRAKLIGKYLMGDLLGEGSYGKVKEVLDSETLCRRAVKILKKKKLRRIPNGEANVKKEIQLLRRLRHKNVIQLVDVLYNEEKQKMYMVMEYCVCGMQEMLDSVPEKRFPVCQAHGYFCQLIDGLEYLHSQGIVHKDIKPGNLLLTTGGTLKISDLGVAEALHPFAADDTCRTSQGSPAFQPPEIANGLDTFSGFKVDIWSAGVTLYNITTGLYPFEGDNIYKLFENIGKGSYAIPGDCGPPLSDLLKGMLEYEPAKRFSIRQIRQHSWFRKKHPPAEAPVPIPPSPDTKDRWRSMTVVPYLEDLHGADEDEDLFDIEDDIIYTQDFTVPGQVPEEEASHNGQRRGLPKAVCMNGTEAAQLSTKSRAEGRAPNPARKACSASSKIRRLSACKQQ

Experiment [4] concerns the target T2, Dual specificity mitogen-activated protein kinase kinase 5 (Homo sapiens, UniProt Q13163).
T2 sequence (Q13163 whole entry): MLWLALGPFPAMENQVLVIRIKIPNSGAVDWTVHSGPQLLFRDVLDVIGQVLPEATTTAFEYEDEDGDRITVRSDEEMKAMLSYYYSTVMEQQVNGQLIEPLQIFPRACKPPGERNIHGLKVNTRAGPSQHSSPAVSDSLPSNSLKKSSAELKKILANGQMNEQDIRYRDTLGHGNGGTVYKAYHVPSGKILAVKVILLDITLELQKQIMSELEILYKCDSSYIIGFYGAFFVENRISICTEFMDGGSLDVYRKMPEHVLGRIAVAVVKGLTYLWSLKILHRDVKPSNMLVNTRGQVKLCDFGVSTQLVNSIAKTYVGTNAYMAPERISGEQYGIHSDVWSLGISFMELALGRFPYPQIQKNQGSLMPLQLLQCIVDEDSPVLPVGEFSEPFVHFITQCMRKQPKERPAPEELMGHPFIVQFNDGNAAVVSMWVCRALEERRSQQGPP

Experiment [5] has as its target T3, Very long-chain specific acyl-CoA dehydrogenase, mitochondrial (Homo sapiens, UniProt P49748).
T3 sequence (P49748 whole entry): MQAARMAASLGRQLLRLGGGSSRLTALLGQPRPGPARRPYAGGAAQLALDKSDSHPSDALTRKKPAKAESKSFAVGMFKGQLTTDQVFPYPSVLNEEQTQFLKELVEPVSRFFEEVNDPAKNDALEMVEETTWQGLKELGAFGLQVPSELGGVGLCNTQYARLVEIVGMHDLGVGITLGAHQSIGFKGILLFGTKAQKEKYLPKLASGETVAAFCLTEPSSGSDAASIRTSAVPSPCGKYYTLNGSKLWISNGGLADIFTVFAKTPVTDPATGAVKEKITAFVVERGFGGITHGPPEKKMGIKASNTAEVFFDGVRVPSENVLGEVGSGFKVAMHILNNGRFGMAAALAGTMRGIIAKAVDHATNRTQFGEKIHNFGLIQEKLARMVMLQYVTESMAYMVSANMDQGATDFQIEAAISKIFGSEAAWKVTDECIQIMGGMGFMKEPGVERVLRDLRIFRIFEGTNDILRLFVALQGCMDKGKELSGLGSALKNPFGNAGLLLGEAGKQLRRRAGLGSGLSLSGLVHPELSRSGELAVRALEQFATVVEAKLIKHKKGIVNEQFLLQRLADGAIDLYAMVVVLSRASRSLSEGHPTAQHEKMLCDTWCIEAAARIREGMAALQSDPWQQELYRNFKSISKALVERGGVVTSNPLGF

Experiment [6] concerns the target T4, NUAK family SNF1-like kinase 2 (Homo sapiens, UniProt Q9H093).
T4 sequence (Q9H093 whole entry): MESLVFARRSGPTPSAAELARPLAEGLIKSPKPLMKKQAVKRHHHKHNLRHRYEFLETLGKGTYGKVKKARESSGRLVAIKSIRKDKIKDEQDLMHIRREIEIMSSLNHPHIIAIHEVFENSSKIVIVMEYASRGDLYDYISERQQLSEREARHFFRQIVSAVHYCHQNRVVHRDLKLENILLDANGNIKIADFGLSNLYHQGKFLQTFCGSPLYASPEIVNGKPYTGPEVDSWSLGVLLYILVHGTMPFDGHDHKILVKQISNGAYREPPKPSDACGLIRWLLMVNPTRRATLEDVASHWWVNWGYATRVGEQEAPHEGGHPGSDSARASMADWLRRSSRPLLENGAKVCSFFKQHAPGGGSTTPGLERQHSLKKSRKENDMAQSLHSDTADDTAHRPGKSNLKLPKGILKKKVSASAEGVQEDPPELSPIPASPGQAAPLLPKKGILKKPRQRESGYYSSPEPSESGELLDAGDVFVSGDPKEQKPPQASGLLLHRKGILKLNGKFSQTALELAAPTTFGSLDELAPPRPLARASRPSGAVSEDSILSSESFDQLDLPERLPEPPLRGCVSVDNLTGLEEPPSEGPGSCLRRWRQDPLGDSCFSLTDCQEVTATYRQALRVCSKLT

Active and inactive are the calls of the source.

Usually Kd stands for the constant that tells how readily two partners part at equilibrium.
Note: in the data inactive means no Kd found up to 30 µM.

Serine/threonine-protein kinase SIK3, sequence (Q9Y2K2 whole entry): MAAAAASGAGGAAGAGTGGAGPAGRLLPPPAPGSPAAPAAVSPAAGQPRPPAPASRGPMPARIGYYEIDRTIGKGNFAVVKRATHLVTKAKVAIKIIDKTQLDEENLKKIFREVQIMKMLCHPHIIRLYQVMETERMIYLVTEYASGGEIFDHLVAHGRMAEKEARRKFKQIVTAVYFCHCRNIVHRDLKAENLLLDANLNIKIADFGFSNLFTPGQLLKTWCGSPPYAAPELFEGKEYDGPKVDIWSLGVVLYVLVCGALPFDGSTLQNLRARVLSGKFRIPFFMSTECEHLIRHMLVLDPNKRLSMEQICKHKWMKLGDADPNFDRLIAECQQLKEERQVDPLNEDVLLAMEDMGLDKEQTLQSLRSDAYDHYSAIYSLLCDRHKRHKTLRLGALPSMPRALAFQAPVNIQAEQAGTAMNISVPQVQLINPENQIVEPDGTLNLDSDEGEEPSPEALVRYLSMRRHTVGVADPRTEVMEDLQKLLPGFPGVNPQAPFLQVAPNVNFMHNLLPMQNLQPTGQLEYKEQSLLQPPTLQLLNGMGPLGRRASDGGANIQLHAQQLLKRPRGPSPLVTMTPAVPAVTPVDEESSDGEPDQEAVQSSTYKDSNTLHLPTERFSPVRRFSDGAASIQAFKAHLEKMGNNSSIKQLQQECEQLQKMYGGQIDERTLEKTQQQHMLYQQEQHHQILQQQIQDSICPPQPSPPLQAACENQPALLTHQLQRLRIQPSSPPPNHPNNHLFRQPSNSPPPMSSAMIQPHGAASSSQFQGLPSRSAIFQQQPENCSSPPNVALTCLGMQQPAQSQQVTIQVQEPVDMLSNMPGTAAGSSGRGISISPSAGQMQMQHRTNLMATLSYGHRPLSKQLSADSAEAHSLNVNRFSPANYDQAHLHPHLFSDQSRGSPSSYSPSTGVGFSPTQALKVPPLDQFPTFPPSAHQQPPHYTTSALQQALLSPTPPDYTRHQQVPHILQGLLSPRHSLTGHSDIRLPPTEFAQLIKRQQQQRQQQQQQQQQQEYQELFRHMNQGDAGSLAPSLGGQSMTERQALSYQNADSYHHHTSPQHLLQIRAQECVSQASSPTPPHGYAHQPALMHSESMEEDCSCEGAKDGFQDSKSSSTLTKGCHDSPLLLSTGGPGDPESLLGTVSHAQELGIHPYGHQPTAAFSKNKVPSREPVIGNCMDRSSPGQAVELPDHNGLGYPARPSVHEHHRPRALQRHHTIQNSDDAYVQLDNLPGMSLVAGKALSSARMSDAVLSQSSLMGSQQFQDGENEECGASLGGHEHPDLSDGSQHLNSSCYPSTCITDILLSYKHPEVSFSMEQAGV
cAMP-dependent protein kinase type II-alpha regulatory subunit, sequence (P13861 whole entry): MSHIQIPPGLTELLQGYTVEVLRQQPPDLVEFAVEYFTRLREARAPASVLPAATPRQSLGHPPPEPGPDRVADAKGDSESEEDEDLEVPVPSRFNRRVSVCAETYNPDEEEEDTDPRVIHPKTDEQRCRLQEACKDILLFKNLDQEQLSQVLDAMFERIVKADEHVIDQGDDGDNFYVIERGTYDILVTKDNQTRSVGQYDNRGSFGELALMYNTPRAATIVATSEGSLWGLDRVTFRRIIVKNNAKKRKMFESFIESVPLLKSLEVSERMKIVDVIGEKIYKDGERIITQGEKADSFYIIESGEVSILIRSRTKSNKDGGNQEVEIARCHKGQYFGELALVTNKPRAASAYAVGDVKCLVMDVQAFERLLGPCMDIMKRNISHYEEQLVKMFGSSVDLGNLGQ

On to `S=C(NCc1ccc2c(c1)OCO2)N1CCN(c2ncnc3c2oc2ccccc23)CC1` [AMUVATINIB], for which the Kd in experiment [1], in experiment [2], in experiment [3], in experiment [4], in experiment [5] and in experiment [6] was > 30 µM (inactive) each time.

As for `O[C@H]1CC[C@H](Nc2ncc3nc(Nc4c(F)cc(F)cc4F)n([C@H]4CCOC4)c3n2)CC1` [TANZISERTIB], the Kd is > 30 µM (inactive) in experiment [1]; 2.98 µM (active) in experiment [2]; > 30 µM (inactive) in experiment [3]; > 30 µM (inactive) in experiment [4]; > 30 µM (inactive) in experiment [5]; > 30 µM (inactive) in experiment [6].

For `COc1cccc2cc(-c3nc([C@H]4CC[C@H](C(=O)O)CC4)n4ncnc(N)c34)[nH]c12` [OSI-027], the Kd was > 30 µM (inactive) in experiment [1]; > 30 µM (inactive) in experiment [2]; > 30 µM (inactive) in experiment [3]; 4.91 µM (active) in experiment [4]; > 30 µM (inactive) in experiment [5]; > 30 µM (inactive) in experiment [6].

Turning to `Cn1c(=O)n(-c2ccc(C(C)(C)C#N)cc2)c2c3cc(-c4cnc5ccccc5c4)ccc3ncc21` [DACTOLISIB], the Kd in experiment [1], in experiment [2], in experiment [3], in experiment [4], in experiment [5] and in experiment [6] was > 30 µM (inactive) each time.

For the molecule `O=c1[nH]c([C@@H]2CCCN2)nc2c1oc1ccc(Cl)cc12`, the Kd in experiment [1], in experiment [2], in experiment [3], in experiment [4], in experiment [5] and in experiment [6] was > 30 µM (inactive) throughout.

As for `C[C@@]1(C(=O)Nc2ccc(F)nc2)CCCN1c1nc(Nc2cc(C3CC3)n[nH]2)c2cccn2n1` [BMS-754807], in experiment [5], the Kd was > 30 µM (inactive).

For `c1cc(OCCN2CCCCC2)cc(-c2n[nH]c3ccc(-c4nc[nH]n4)cc23)c1` [CC-401], the Kd in experiment [1], in experiment [2], in experiment [3], in experiment [4] and in experiment [6] was > 30 µM (inactive) each time.

For `CC[C@@](C)(Nc1ccnc(-c2c[nH]c3ncccc23)n1)C(=O)NCC(F)(F)F` [DECERNOTINIB], the Kd in experiment [2], in experiment [3], in experiment [4], in experiment [5] and in experiment [6] was > 30 µM (inactive) each time.

Turning to `COc1cc2c(Oc3ccc4[nH]c(C)cc4c3F)ncnc2cc1OCCCN1CCCC1` [CEDIRANIB], the Kd in experiment [1] and in experiment [5] was > 30 µM (inactive) each time.

For `Cn1cnc2c(F)c(Nc3ccc(Br)cc3Cl)c(C(=O)NOCCO)cc21` [SELUMETINIB], the Kd in experiment [1] and in experiment [5] was > 30 µM (inactive) each time.

`COc1cc2c(N3CCN(C(=O)Nc4ccc(OC(C)C)cc4)CC3)ncnc2cc1OCCCN1CCCCC1` [TANDUTINIB]: the Kd in experiment [1] and in experiment [5] was > 30 µM (inactive) each time.

On to `CC1(C)CNc2cc(NC(=O)c3cccnc3NCc3ccncc3)ccc21` [MOTESANIB], for which the Kd in experiment [1] and in experiment [5] was > 30 µM (inactive) in each case.

As for `CC(C)(O)CC(=O)NCCn1ccc2ncnc(Nc3ccc(Oc4cccc(C(F)(F)F)c4)c(Cl)c3)c21` [TAK-285], the Kd in experiment [1], in experiment [2], in experiment [3], in experiment [5] and in experiment [6] was > 30 µM (inactive) throughout.

As for `CN(C)C/C=C/C(=O)Nc1cc2c(Nc3ccc(F)c(Cl)c3)ncnc2cc1O[C@H]1CCOC1` [AFATINIB], the Kd in experiment [1] and in experiment [5] was > 30 µM (inactive) each time.

Regarding `C=CC(=O)Nc1cccc(Nc2nc(Nc3ccc(N4CCN(C(C)=O)CC4)cc3OC)ncc2C(F)(F)F)c1` [ROCILETINIB], the Kd in experiment [2], in experiment [3], in experiment [4], in experiment [5] and in experiment [6] was > 30 µM (inactive) in each case.

Turning to `Cc1c(NC(=O)OC[C@@H]2COCCN2)cn2ncnc(Nc3ccc4c(cnn4Cc4cccc(F)c4)c3)c12` [AC-480], the Kd was > 30 µM (inactive) in experiment [1]; > 30 µM (inactive) in experiment [2]; 5.93 µM in experiment [4]; > 30 µM (inactive) in experiment [5]; > 30 µM (inactive) in experiment [6].

As for `Cc1cc(-c2cc(OC(=O)c3ccccc3)ccc2Cl)cc2nnc(Nc3ccc(OCCN4CCCC4)cc3)nc12` [TG100-801], the Kd in experiment [1], in experiment [2], in experiment [3], in experiment [4] and in experiment [5] was > 30 µM (inactive) each time.

For the molecule `O=C(NC[C@H](O)CO)c1ccncc1Nc1ccc(I)cc1F` [PIMASERTIB], the Kd in experiment [1], in experiment [2], in experiment [3], in experiment [4] and in experiment [5] was > 30 µM (inactive) throughout.

Consider `CC(C)CC(=O)Nc1[nH]nc2c1CN(C(=O)C1CCN(C)CC1)C2(C)C` [PHA-793887], for which the Kd in experiment [1], in experiment [2], in experiment [4], in experiment [5] and in experiment [6] was > 30 µM (inactive) throughout.

In the case of `CC1(COc2ccc3c(c2)ncn3-c2ccc3cccc(N4CCC(N)CC4)c3n2)COC1` [CRENOLANIB], the Kd in experiment [1] was > 30 µM (inactive); in experiment [2], 0.002 µM (active); in experiment [3], > 30 µM (inactive); in experiment [5] it was > 30 µM (inactive); in experiment [6] it was > 30 µM (inactive).

For the molecule `COc1ccc2c(OCc3nnc4ccc(-c5ccccc5)nn34)ccnc2c1` [AMG-208], the Kd in experiment [1], in experiment [2], in experiment [3], in experiment [4] and in experiment [5] was > 30 µM (inactive) each time.

Consider `COc1ccc(-c2ccc3ncc4c(c3c2)n(-c2ccc(N3CCNCC3)c(C(F)(F)F)c2)c(=O)n4C)cn1` [BGT-226 FREE BASE], for which the Kd in experiment [1], in experiment [2], in experiment [4], in experiment [5] and in experiment [6] was > 30 µM (inactive) in each case.

These data come from ChEMBL document CHEMBL3991601, “The target landscape of clinical kinase drugs” (Science, 2017).
